According to article PMC12656329, “Specific Hepatorenal Toxicity and Cross-Species Susceptibility of Eight Representative Pesticides” (Toxics, 2025):
Entries after “also recorded” stand apart in the source; their conditions may differ. Like-named read-outs stand apart in the source and are kept apart here.

Columns and labels:
IAR hepatocytes = assay: CCK-8 cytotoxicity assay, IAR; type: cell-based; settings: Rattus norvegicus, Hepatocyte; CCK-8, 24 h exposure
Protocol: (§1) Human embryonic kidney 293T (HEK293T) cells and rat renal NRK cells were maintained in high-glucose DMEM supplemented with 10% fetal bovine serum (FBS) and 1% penicillin–streptomycin at 37 °C under 5% CO2 until reaching 70–80%. Human liver CCC-HEL-1 cells were cultured under identical conditions but with 20% FBS, while rat normal hepatocytes were grown in high-glucose MEM containing 20% FBS and 1% penicillin–streptomycin. Stock solutions (500 g/L) of eight pesticide standards were prepared in dimethyl sulfoxide (DMSO) and stored at −20 °C. Working concentrations were freshly diluted in serum-containing culture medium prior to each experiment.
(§2) The cytotoxicity of eight pesticides on four mammalian cell lines was assessed using the Cell Counting Kit-8 (CCK-8) assay. Initially, stock solutions of each pesticide were prepared by dissolving the compound in dimethyl sulfoxide (DMSO) to a final concentration of 500 g/L. For the assay, cells were seeded into 96-well plates at a density of 2 × 10^4 cells per well in 100 µL of medium and incubated for 24 h at 37 °C under a 5% CO2 atmosphere to allow for attachment. Subsequently, the culture medium was replaced with fresh medium containing the pesticides at a series of final concentrations (0, 10, 100, 200, 400, 800, 1000, and 2500 mg/L). Pesticide working concentrations were prepared through serial dilution of the 500 g/L DMSO stock solution, resulting in variable final DMSO concentrations across treatment groups (ranging from 0.002% to 0.5% v/v). A media-only blank (no cells) was included for background absorbance correction, and a solvent control (0.1% DMSO, no pesticide) was used to account for any vehicle effects. All conditions were performed in five replicates. […] At DMSO concentrations ranging from 0.1% to 0.2%, the viability of all four cell lines remained stable above 80%. At a 1% DMSO concentration, the viability of all four cell types was around 50% or higher (Supplementary Figure S5). Following 24 h of exposure, 10 µL of CCK-8 reagent was added to each well. Absorbance Measurement: After an additional 1 h of incubation in the dark, the optical density (OD) at 450 nm was recorded using a microplate reader. Cell viability was calculated by comparing the OD values of treated groups with those of the blank control. Although some test concentrations exceeded the water solubility of the pesticides, the combination of DMSO and serum in the culture medium maintained a uniform exposure system. No precipitation was observed during the experiment, ensuring that the measured effects are attributed to the bioavailable fraction of the compound. […]
(§3) 1. Pesticide Exposure: After removing the medium, fresh medium containing gradient concentrations (0–2500 mg/L) of each pesticide was added (five replicates per concentration).
(§4) Following 24 h of exposure, 10 µL of CCK-8 reagent was added to each well.
(§5) 2. Absorbance Measurement: After 1 h of dark incubation, the OD at 450 nm was measured using a microplate reader.
(§6) 3. Cell Viability Calculation: Viability was determined by comparing the OD values of treated groups to the blank control. […]

293T renal cells [1] = assay: CCK-8 cytotoxicity assay, 293T; type: cell-based, human; settings: CCK-8, 24 h exposure; for IC50: Homo sapiens, HEK-293T, 24 h
Protocol: as §1, §2, §3, §4, §5, §6

CCC-HEL-1 hepatocytes [2] = settings: CCC-HEL-1 cells, 24 h exposure at median lethal concentration, vs control
NRK renal cells = assay: CCK-8 cytotoxicity assay, NRK; type: cell-based; settings: Rattus norvegicus; CCK-8, 24 h exposure
Protocol: as §1, §2, §3, §4, §5, §6

CCC-HEL-1 hepatocytes [3] = assay: CCK-8 cytotoxicity assay, CCC-HEL-1; type: cell-based; settings: Homo sapiens, Hepatocyte; CCK-8, 24 h exposure
Protocol: as §1, §2, §3, §4, §5, §6

[4] = ref PPDB: Pesticide Properties DataBase, cited from earlier work
Rat = settings: cited from earlier work
[5] = tested on: four mammalian cell lines (CCC-HEL-1, 293T, IAR, NRK); assay: CCK-8 cytotoxicity, statements across the four cell lines; type: cell-based, human and rat; settings: CCK-8 / heatmap of OD values
Protocol: The cytotoxicity of eight pesticides on four mammalian cell lines was assessed using the Cell Counting Kit-8 (CCK-8) assay. Initially, stock solutions of each pesticide were prepared by dissolving the compound in dimethyl sulfoxide (DMSO) to a final concentration of 500 g/L. For the assay, cells were seeded into 96-well plates at a density of 2 × 10^4 cells per well in 100 µL of medium and incubated for 24 h at 37 °C under a 5% CO2 atmosphere to allow for attachment. Subsequently, the culture medium was replaced with fresh medium containing the pesticides at a series of final concentrations (0, 10, 100, 200, 400, 800, 1000, and 2500 mg/L). Pesticide working concentrations were prepared through serial dilution of the 500 g/L DMSO stock solution, resulting in variable final DMSO concentrations across treatment groups (ranging from 0.002% to 0.5% v/v). A media-only blank (no cells) was included for background absorbance correction, and a solvent control (0.1% DMSO, no pesticide) was used to account for any vehicle effects. All conditions were performed in five replicates. […] At DMSO concentrations ranging from 0.1% to 0.2%, the viability of all four cell lines remained stable above 80%. At a 1% DMSO concentration, the viability of all four cell types was around 50% or higher (Supplementary Figure S5). Following 24 h of exposure, 10 µL of CCK-8 reagent was added to each well. Absorbance Measurement: After an additional 1 h of incubation in the dark, the optical density (OD) at 450 nm was recorded using a microplate reader. Cell viability was calculated by comparing the OD values of treated groups with those of the blank control. Although some test concentrations exceeded the water solubility of the pesticides, the combination of DMSO and serum in the culture medium maintained a uniform exposure system. No precipitation was observed during the experiment, ensuring that the measured effects are attributed to the bioavailable fraction of the compound.

MRP2 in 293T renal cells = assay: MRP2 immunofluorescence staining, 293T; type: cell-based, human; settings: 293T cells, 24 h at IC50, immunofluorescence, vs untreated controls
Protocol: Cells were seeded at a density of 1 × 10^5 cells per well in immunofluorescence-specific glass-bottom dishes and allowed to adhere for 24 h. […] Following treatment, cells were fixed with 4% paraformaldehyde for 15 min at room temperature and permeabilized with 0.1% Triton X-100 for 10 min. Non-specific binding was blocked with 5% bovine serum albumin (BSA) for 1 h at room temperature. Cells were then incubated with primary antibody against MRP2 (1:300 dilution) overnight at 4 °C. After three washes with PBS, cells were treated with secondary antibody (rabbit anti-IgG, 1:600 dilution) for 1 h at room temperature and washed three times with PBS. Anti-MRP2 antibody (Abcam, ab172630) and Alexa Fluor® 488-conjugated anti-rabbit IgG secondary antibody (Cell Signaling Technology, Danvers, MA, USA, 4412) were used for immunofluorescence staining. Nuclei were counterstained with DAPI Staining Solution (C1005, 10 mL) (Beyotime Biotechnology, Shanghai, China). Fluorescent images were captured using a 10× inverted fluorescence microscope. Quantitative analysis of fluorescence intensity was performed using ImageJ software 2.1.0 (National Institutes of Health, Bethesda, MD, USA).

293T renal cells [6] = assay: ELISA of toxicity biomarkers (LDH, KIM-1) in culture supernatant, 293T; type: cell-based, human; settings: 293T cells, 24 h exposure at median lethal concentration, vs control
Protocol: The levels of hepatotoxicity biomarkers (ALT, AST, ALP) and nephrotoxicity biomarkers (KIM-1, LDH) in cell culture supernatant were quantified using commercially available ELISA kits (Cloud-Clone Corp., Wuhan, China). 100 μL of the supernatant was added to the pre-coated wells and incubated according to the manufacturer’s protocol (five replicates). After washing, the appropriate detection antibody and substrate were added, and the absorbance was measured at 450 nm using microplate reader. The concentrations of the biomarkers were determined based on standard curves.

[7] = metabolite of chlorpyrifos; ref [3] (Huen et al. 2012, ref 76); cited from earlier work
Colinus virginianus = settings: in vivo; cited from earlier work
[8] = Rat, ref PPDB: Pesticide Properties DataBase
[9] = cell lines as stated in the sentence

Row | Structure (SMILES) | IC50 (IAR hepatocytes) | IC50 (293T renal cells [1]) | AST level (CCC-HEL-1 hepatocytes [2]) | IC50 (NRK renal cells) | IC50 (CCC-HEL-1 hepatocytes [3]) | ADI - Acceptable Daily Intake ([4]; Rat SF=100) | Mammals - Acute oral LD50 (Rat; [8]) | cytotoxicity (in words) [5, 9] | LDH level (CCC-HEL-1 hepatocytes [2]) | also measured
1 | N#Cc1c(Cl)c(Cl)c(Cl)c(C#N)c1Cl [Chlorothalonil, chlorothalonil] | 21.3 µg/mL | 32.5 µg/mL | marked suppression | 55.6 µg/mL | 48.1 µg/mL | 0.015 mg kg⁻¹ bw day⁻¹ | > 5000 mg/kg | relatively lower cytotoxicity at specific concentrations |  | 293T IC50 (293T renal cells [1]): 32.6 µg/mL; cytotoxicity (in words) ([5]; cell lines as stated in the sentence, listed as chlorothalonil): strongest cytotoxicity; also recorded: most cytotoxic agent
2 | CCOP(=S)(OCC)Oc1nc(Cl)c(Cl)cc1Cl [Chlorpyrifos, chlorpyrifos] | 898 µg/mL | 444 µg/mL | marked suppression | 990 µg/mL | 633 µg/mL | 0.001 mg kg⁻¹ bw day⁻¹ | 66 mg/kg |  | most dramatic LDH elevation | MRP2 protein level (MRP2 in 293T renal cells): most pronounced effect; also recorded: most pronounced downregulation; KIM-1 expression (293T renal cells [6]): significantly decreased; also recorded: statistically significant downregulation; cytotoxicity (in words) [5]: lowest toxicity; also recorded: minimal direct cytotoxicity
3 | CC1COC(Cn2cncn2)(c2ccc(Oc3ccc(Cl)cc3)cc2Cl)O1 (stereo not shown) [Difenoconazole, difenoconazole] | 132 µg/mL | 209 µg/mL | increased levels | 498 µg/mL | 374 µg/mL | 0.01 mg kg⁻¹ bw day⁻¹ |  | strong cytotoxic effects |  | ALT level (CCC-HEL-1 hepatocytes [2]): reduced ALT activity; AST level (CCC-HEL-1 hepatocytes [2]; listed as difenoconazole): elevated AST levels; KIM-1 expression (293T renal cells [6]): significantly decreased
4 | Cc1cc(C)nc(Nc2ccccc2)n1 [Pyrimethanil, pyrimethanil] | 362 µg/mL | 111 µg/mL |  | 192 µg/mL | 505 µg/mL | 0.17 mg kg⁻¹ bw day⁻¹ | 4150 mg/kg |  | LDH elevation | ALP level (CCC-HEL-1 hepatocytes [2]): isolated ALP elevation; ALT level (CCC-HEL-1 hepatocytes [2]): normal ALT levels; ALP level (CCC-HEL-1 hepatocytes [2]; listed as pyrimethanil): substantial increases; LDH release (293T renal cells [6]): significantly elevated LDH release; LDH release (293T renal cells [6]; listed as pyrimethanil): significantly increased
5 | Oc1nc(Cl)c(Cl)cc1Cl [TCPy, 3,5,6-Trichloro-2-pyridinol] |  |  |  |  |  |  |  |  |  | Toxicokinetic Parameter (Concentration), highest level [7]: 6.27 ng/mL
6 | CC(C)(C)C(O)(CCc1ccc(Cl)cc1)Cn1cncn1 (stereo not shown) [Tebuconazole, tebuconazole] | 188 µg/mL | 41.5 µg/mL |  | 171 µg/mL | 135 µg/mL |  |  | relatively lower cytotoxicity at specific concentrations | LDH elevation | ALP level (CCC-HEL-1 hepatocytes [2]): concurrent elevations of both ALT and ALP; ALP level (CCC-HEL-1 hepatocytes [2]; listed as tebuconazole): substantial increases; Birds - Acute LD50 (Colinus virginianus): 1988; ADI - Acceptable Daily Intake ([4]; Dog SF=100): 0.03 mg kg⁻¹ bw day⁻¹; Mammals - Acute oral LD50 (Rat; rat, in vivo, po): 1700
7 | CC(C)(C)C(=O)C(Oc1ccc(Cl)cc1)n1cncn1 (stereo not shown) [Triadimefon, triadimefon] | 878 µg/mL | 107 µg/mL |  | 977 µg/mL | 219 µg/mL |  |  | strong cytotoxic effects |  | ADI - Acceptable Daily Intake ([4]; basis species not given): 0.03 mg kg⁻¹ bw day⁻¹
